# Measurements: ChEMBL document CHEMBL4354807, “Natural Product Albiziabioside A Conjugated with Pyruvate Dehydrogenase Kinase Inhibitor Dichloroacetate To Induce Apoptosis-Ferroptosis-M2-TAMs Polarization for Combined Cancer Therapy” (J Med Chem, 2019)
# Active and inactive are the calls of the source. The rule behind the calls is not given here.
# What was measured:
# [1] = target: [Pyruvate dehydrogenase (acetyl-transferring)] kinase isozyme 1, mitochondrial (Homo sapiens) (UniProt Q15118); assay: Inhibition of PDK1 (unknown origin) in PBS buffer using PDK tide as substrate at pH 7.4 measured after 90 mins in presence of ATP by ADP-Glo luminescent kinase assay
# MCF7 [2] = assay: Induction of apoptosis in human MCF7 cells assessed as downregulation of Bcl2 expression at 2 uM after 48 hrs by Western blot analysis relative to control; type: functional
# [3] = Selectivity index, ratio IC50 for cytotoxicity against human HBMEC cells assessed as reduction in cell viability after 72 hrs by MTT assay to IC50 for anticancer activity against human HCT116 cells assessed as reduction in cell viability after 72 hrs by MTT assay
# MCF7 [4] = assay: Induction of ferroptosis in human MCF7 cells assessed as cell death at 2 uM pretreated with ferroptosis inhibitor ferrostatin-1 followed by compound treatment by MTT assay; type: functional, cell-based
# [5] = Toxicity in BALB/c nude mouse xenografted with human MCF7 cells assessed as effect on spleen at 2 mg/kg, iv administered every 2 days for 2 weeks measured after 14 days by hematoxylin and eosin staining based histopathological analysis; type: organism-based; details: in vivo, 336 h
# MCF7 [6] = assay: Induction of apoptosis in human MCF7 cells assessed as viable cells at 2 uM after 24 hrs by Annexin V-FITC/propidium iodide staining-based flow cytometric analysis (reference value: 93.39 %); type: functional; details: MCF7, 24 h, read-out: Activity
# MCF7 [7] = assay: Effect on lipid peroxidation in human MCF7 cells assessed as increase in […] at 2 uM after 15 mins by BODIPY-C11 dye based fluorescence imaging analysis relative to control; type: functional
# 4T1 [8] = assay: Reversal of immunosuppression against mouse 4T1 cells implanted in BALB/c mouse assessed as reduction in tumor volume at 2 mg/kg administered intratumorally every 2 days for 2 weeks measured after 14 days; type: functional
# 4T1 [9] = assay: Reversal of immunosuppression against mouse 4T1 cells implanted in BALB/c mouse assessed as decrease in weight of primary tumor at 2 mg/kg administered intratumorally every 2 days for 2 weeks measured after 14 days; type: functional, organism-based
# 4T1 [10] = assay: Anticancer activity against mouse 4T1 cells expressing PDK assessed as reduction in cell viability after 72 hrs by MTT assay; type: functional, cell-based; details: 4T1, 72 h
# 4T1 [11] = assay: Inhibition of glycolysis in mouse 4T1 cells expressing PDK assessed as reduction in extracellular lactate level at 2 uM after 6 hrs by microplate reader assay; type: functional, cell-based
structure (smiles),measurement,setting,value
CC1(C)CC[C@]2(C(=O)O)CC[C@]3(C)C(=CC[C@@H]4[C@@]5(C)CC[C@H](O[C@@H]6O[C@H](CO[C@@H]7OC[C@H](O)[C@H](O)[C@H]7O)[C@@H](O)[C@H](O)[C@H]6NC(=O)C(Cl)Cl)C(C)(C)[C@@H]5CC[C@]43C)[C@@H]2C1,inhibition,[1],inactive
same,fold change (FC),MCF7 [2],0.5
same,Ratio IC50,[3],9.87
same,Activity,MCF7 [4],inactive
same,Activity,[5],Non-Toxic
same,viability at 2 µM,MCF7 [6],47%
same,fold change (FC),MCF7 [7],2.5
same,Activity,4T1 [8],<100 mm3
same,Activity,4T1 [9],Active
same,IC50,4T1 [10],1310 nM
same,inhibition,4T1 [11],Active
